Source: publication PMC7156458, “Synthetic biology based construction of biological activity-related library of fungal decalin-containing diterpenoid pyrones” (Nature Communications, 2020)
“And” between values parts separate entries of the source, which are not always exact repeats. Equal entries are not always repeated.

Tests used:
Aβ42 = Aβ42 (Homo sapiens, UniProt P05067); test: LC/Q Tof-MS detection of Aβ42 adducts; assay type: binding; conditions: 1 h incubation at room temperature
Protocol: To further analyse the inhibitory mechanism, we subjected a mixture of Aβ42 and 21 after 1 h of incubation at room temperature to liquid chromatography/quadrupole time-of-flight mass spectrometry (LC/Q Tof-MS). […] To identify the specific amino acids involved in the interaction of 21 with the Aβ monomer, we performed LC–MS/MS analysis with collision-induced dissociation (CID) using E22P, M35ox-Aβ9-35 as a toxic conformer surrogate[66],[67]. Based on a large number of fragmented b ions and y ions, Lys16 in Aβ42 ([…]) seemed to be one of the target amino acid residues of 21 (Supplementary Fig. 50).
Device; UPLC H-class with Xevo G2-S Qtof (Waters) 3.44e7 […]
in 50% CH3CN containing 0.01%NH4OH, incubated for 1 h at 23 °C […]
Capillary voltage; 3.0 kv 16.07
WT-A!42+ compound 21 1: TOF MS ES+
ْMeasurement conditionٓ 2.25e7
Device; UPLC H-class with Xevo G2-S Qtof (Waters)
Capillary voltage; 3.0 kv
WT-A!42 + compound 21 Mass spectrum […]
Supplementary Fig. 48. Comparison of LC-MS data, a, compound 20 was incubated with wt-Aβ42 and analyzed by LC-MS, whereas no peak originated from their adducts was observed. b, compound 21 was incubated with Aβ42 and analyzed by LC-MS, and their Michael adducts were observed around 9 min. c, ESI mass spectra of the Michael adducts between Aβ42 and compound 21. d, Deconvolution Mass spectrum of a Michael adduct observed at 8.944 min. […]

[1] = test system: ALDH-positive cells in MCF-7 cells; test: ALDH-positive cell population (ALDEFLUOR, flow cytometry); assay type: cell-based, human; conditions: for population of ALDH-positive cells / ALDH-positive cells ave (fold) / ALDH-positive cells ave / ALDH-positive cells (%): MCF-7, 1 μM; for ALDH-positive cells ave (fold) / ALDH-positive cells ave / ALDH-positive cells (%): 3 days; for ALDH-positive cells ave (fold): control = 1; for ALDH-positive cells ave: mean of 3, control 1.4; for ALDH-positive cells (%) / ALDH (+) Cell number (10^4 cells) / ALDH (-) Cell number (10^4 cells): single replicates; for ALDH (+) Cell number (10^4 cells) ave: 0 µM 1.61; for ALDH (-) Cell number (10^4 cells) ave: 0 µM 133.39; for ALDH (+) Cell number ave (fold) / ALDH (-) Cell number ave (fold): 0 µM = 1
Protocol: We also evaluated antiproliferative activity against cancer stem cells (CSCs), which are a small sub-population in tumour bulk identified in most cancer cells and clinical samples[52]. CSCs have been a major problem in cancer therapy because they are responsible for recurrence, metastasis and drug resistance to chemotherapeutic agents that affect proliferative cells[53]–[56]. Anti-CSC activity was evaluated by the inhibition of sphere-forming ability, a well-studied method to enrich the CSC-like population, and selective cytotoxicity against one of the most reliable CSC markers, aldehyde dehydrogenase (ALDH)-positive cells. […] Low-toxicity 16 was also added as a negative control. […] We next evaluated the three DDPs that inhibited mammosphere formations against ALDH-positive cells, a functional marker for breast CSCs. MCF-7 cells were treated with 1 μM of 11, 12 or 22, and the ALDH-positive cell population was analysed by using a fluorescence activated cell sorter (Supplementary Fig. 46b). […] Thus, for the first time, we successfully found DDPs with potent antiproliferative effects on the CSC-like population in MCF-7 cells, which may lead to new anti-CSC drugs.
Fig. 5 DDPs show anti-CSC activity in breast cancer cell line MCF-7. a Effect of DDPs on mammosphere formation. After the cells were cultured in the presence of 5 μM DDPs for 7 days, the number of mammospheres was microscopically counted and the percentage of mammosphere-forming cells was determined as mammosphere-forming efficiency (MFE; %). Data represent mean ± s.d. from three independent replicate experiments. P-values were calculated by a two-sided unpaired Student’s t-test, compared with control. b Micrographs show representative images of mammosphere formation from three independent replicate experiments using compound 11, 12, 16, 22. The scale bar, […]. c Effect of DDPs (1 μM, 3 days) on ALDH-positive cells in MCF-7 cells. Data represent mean ± s.d. from three independent replicate experiments. P-values were calculated by a two-sided unpaired Student’s t-test, compared with control. d Dose-dependent effect of compound 12 on ALDH-positive cells in MCF-7 cells. Data represent mean ± s.d. from three independent replicate experiments. P-values were calculated by a two-sided unpaired Student’s t-test. Source data underlying Fig. 5a, c, d are provided in a Source Data file.
!" ' ' '! !" ' ' '! !" ' ' '!!" ' ' '!!" ' ' '!!" ' ' '!!" ' ' '!!" ' ' '! !" ' ' '! !" ' ' '! !" ' ' '! !"#$ ( % ) * '! '' '# '+ '$ '( '% […]
Main population Single cells Single cells
(negative control) Without DEAB […]
P-values are calculated using a two-sided unpaired Student’s t-test; * p < 0.05, ** p < 0.01, compared with control. b, Gating strategy of flow cytometry analysis for detecting ALDH-positive cells. All samples were analyzed by sequential gating including main population (G1), single cells (G2, G3). Negative control with DEAB was used to establish G4 (ALDH-negative cells) and G5 (ALDH-positive cells). […]
Policy information about cell lines […]
were distributed from National Cancer Institute (Frederick, MD). HT-29, MCF-7, DU-145 and PC-3 were purchased from […]

HBC-5 = test: cells; design: JFCR39 human cancer cell line panel, antiproliferative dose response (optical density), GI50; conditions: HBC5
Protocol: (§1) Initially, we evaluated new DDP analogues for their antiproliferative activities across the panel of 39 human cancer cell lines, JFCR39[50],[51]. […] Purified DDPs was dissolved in DMSO (Specially Prepared Reagent, Nuclease and Protease tested, NACALAI, 09659-14) to prepare 5 mM solutions. The Each DDP solution (5 mM) was used for antiproliferative effects on cancer cell lines (Supplementary Notes 23, 24, 25, 26), biological activity against Drosophila (Supplementary Note 27), anti-HIV assay (Supplementary Note 28) and screening of amyloid Ab42 aggregation inhibitors (Supplementary Notes 29).

SNB-78 = test: cells; design: JFCR39 human cancer cell line panel, antiproliferative dose response (optical density), GI50; conditions: Homo sapiens, SNB-78
Protocol: as §1

MDA-MB-231 = test: cells; design: JFCR39 human cancer cell line panel, antiproliferative dose response (optical density), GI50; conditions: Homo sapiens, MDA-MB-231
Protocol: as §1

NCI-H226 = test: cells; design: JFCR39 human cancer cell line panel, antiproliferative dose response (optical density), GI50; conditions: Homo sapiens, NCI-H226
Protocol: as §1

HBC-4 = test: cells; design: JFCR39 human cancer cell line panel, antiproliferative dose response (optical density), GI50; conditions: HBC4
Protocol: as §1

Chain of Aβ42 (P05067 672-713): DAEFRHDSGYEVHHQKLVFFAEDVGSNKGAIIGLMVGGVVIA

`C=C1CC[C@@H]2[C@](C)(CC[C@H]3O[C@H](C=C(C)C)C[C@@]23C)[C@@H]1Cc1c(OC)oc(CO)c(C(=O)OC)c1=O` [Compound 21] was tested, and the “Aβ42 adduct formation” value (Aβ42) was “adducts were detected”.

For `C=C1CC[C@@H]2[C@](C)(CC[C@H]3O[C@H](C=C(C)C)C[C@@]23C)[C@@H]1Cc1c(OC)oc(C)c(C)c1=O` [Compound 22, O-methylated higginsianin A], the “population of ALDH-positive cells” value [1] was “reduced the population of ALDH-positive cells”, the “ALDH-positive cells ave (fold)” value [1] was 0.38 fold and the ALDH-positive cells ave [1] was 0.53%. The “ALDH-positive cells (%)” value [1] was 0.4% and 0.5% and 0.7%.

In the case of `C=C1CCC2C(C)(CCC=C(C)C)C(O)CCC2(C)C1Cc1c(OC)oc(CO)c(C)c1=O` (stereo not shown) [Compound 12], the “ALDH (+) Cell number (10^4 cells) ave” value ([1]; MCF-7, 0.1 µM) is reported as 0.68 10^4 cells, the “ALDH (-) Cell number (10^4 cells) ave” value ([1]; MCF-7, 0.1 µM) is reported as 96.66 10^4 cells and the “ALDH (+) Cell number ave (fold)” value ([1]; MCF-7, 0.1 µM) is reported as 0.42 fold. For the same compound, the “ALDH (-) Cell number ave (fold)” value ([1]; MCF-7, 0.1 µM) was 0.72 fold, the “ALDH (+) Cell number (10^4 cells)” value ([1]; MCF-7, 0.1 µM) was 0.81 10^4 cells and 0.72 10^4 cells and 0.50 10^4 cells and the “ALDH (-) Cell number (10^4 cells)” value ([1]; MCF-7, 0.1 µM) was 89.19 10^4 cells and 102.28 10^4 cells and 98.51 10^4 cells. For the same compound, the “ALDH (+) Cell number (10^4 cells) ave” value ([1]; MCF-7, 0.3 µM) was 0.09 10^4 cells, the “ALDH (-) Cell number (10^4 cells) ave” value ([1]; MCF-7, 0.3 µM) was 33.24 10^4 cells and the “ALDH (+) Cell number ave (fold)” value ([1]; MCF-7, 0.3 µM) was 0.0565 fold. For the same compound, the “ALDH (-) Cell number ave (fold)” value ([1]; MCF-7, 0.3 µM) was 0.25 fold, the “ALDH (+) Cell number (10^4 cells)” value ([1]; MCF-7, 0.3 µM) was 0.054 10^4 cells and 0.12 10^4 cells and 0.10 10^4 cells and the “ALDH (-) Cell number (10^4 cells)” value ([1]; MCF-7, 0.3 µM) was 26.95 10^4 cells and 38.88 10^4 cells and 33.90 10^4 cells. The “population of ALDH-positive cells” value [1] was “reduced the population of ALDH-positive cells”, the “ALDH-positive cells ave (fold)” value [1] was 0.29 fold and the ALDH-positive cells ave [1] was 0.40%. The “ALDH-positive cells (%)” value [1] was 0.4% and 0.6% and 0.2%, the “ALDH (+) Cell number (10^4 cells) ave” value ([1]; MCF-7, 1 µM) was 0.09 10^4 cells and the “ALDH (-) Cell number (10^4 cells) ave” value ([1]; MCF-7, 1 µM) was 23.57 10^4 cells. For the same compound, the “ALDH (+) Cell number ave (fold)” value ([1]; MCF-7, 1 µM) was 0.06 fold, the “ALDH (-) Cell number ave (fold)” value ([1]; MCF-7, 1 µM) was 0.18 fold and the “ALDH (+) Cell number (10^4 cells)” value ([1]; MCF-7, 1 µM) was 0.14 10^4 cells and 0.08 10^4 cells and 0.05 10^4 cells. For the same compound, the “ALDH (-) Cell number (10^4 cells)” value ([1]; MCF-7, 1 µM) was 23.86 10^4 cells and 20.92 10^4 cells and 25.95 10^4 cells and the “cytotoxicity against ALDH-positive cells” value ([1]; MCF-7, lower concentrations) was “selective and potent cytotoxicity against ALDH-positive cells”.

With `C=C1CCC2C(C)(CCC=C(C)C)C(O)CCC2(C)C1Cc1c(OC)oc(C)c(C)c1=O` (stereo not shown) [Compound 11] the “population of ALDH-positive cells” value [1] was “reduced the population of ALDH-positive cells”, the “ALDH-positive cells ave (fold)” value [1] was 0.40 fold and the ALDH-positive cells ave [1] was 0.57%. The “ALDH-positive cells (%)” value [1] was 0.4% and 0.9%.

`C=C1CCC2C3(C)CC(C=C(C)C)OC3CCC2(C)C1Cc1c(OC)oc(C)c(C)c1=O` (stereo not shown) [Compound 23] was tested, and the GI50 (HBC-5) was 10.7 µM, the GI50 (SNB-78) was 12.3 µM and the GI50 (MDA-MB-231) was 11.9 µM. For the same compound, the GI50 (NCI-H226) was 10.7 µM and the GI50 (HBC-4) was 13.2 µM.

With `C=C1CC[C@@H]2[C@](C)(CC[C@H]3O[C@H](C=C(C)C)C[C@@]23C)[C@@H]1Cc1c(OC)oc(CO)c(C)c1=O` [Compound 20] the “Aβ42 adduct formation” value (Aβ42) was “no such adduct was found”.

For `C=C1CC[C@H]2[C@]3(C)C[C@H](C=C(C)C)O[C@H]3CC[C@]2(C)[C@@H]1Cc1c(OC)oc(C)c(C)c1=O` [Compound 24], the GI50 (HBC-5) was 10.7 µM, the GI50 (SNB-78) was 12.9 µM and the GI50 (MDA-MB-231) was 11.6 µM. The GI50 (NCI-H226) was 10.6 µM and the GI50 (HBC-4) was 13.4 µM.
